One experiment concerns SW480 (G12V). The experiment in a line: In vitro cell proliferation inhibition test (CellTiter-Glo), SW480. The experiment is classed as cell-based. As to conditions: Homo sapiens, SW480 colon cell line, KRAS (p.G12V), 72 h co-incubation. The gist of the method:
(§1)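 Cells were seeded at 1000-5000/well by doubling time and cultured overnight at 37 °C, 5% CO2. They were then exposed for 72 h to 10-point, 3-fold compound dilutions (final top 10 μM), and viability was read by CellTiter-Glo luminescence. IC50 came from normalized signals fitted by four-parameter regression.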
In general terms: ATP-based viability assays read luminescence as a measure of living cells.

The next experiment relates to AsPC-1 (G12D). The experiment is described as follows: In vitro cell proliferation inhibition test (CellTiter-Glo), AsPC-1. The experiment is classed as cell-based. As to conditions: Homo sapiens, ASPC1, AsPC-1 pancreas cell line, KRAS (p.G12D), 72 h co-incubation. The gist of the method:
as §1

The term IC50 denotes the concentration at which inhibition is half-maximal. As for `CCn1c(-c2cc(-c3cc([C@@H]4CN(C)CCO4)on3)cnc2[C@H](C)OC)c2c3cc(ccc31)-c1csc(n1)C[C@H](NC(=O)[C@H]1[C@H](C)[C@@H]1C)C(=O)N1CCC[C@H](N1)C(=O)OCC(C)(C)C2` (atropisomer, axis not shown) [Compound 27, (1r,2R,3S)-N-((6^3S,4S,Z)-1^1-ethyl-1^2-(2-((S)-1-methoxyethyl)-5-(5-((S)-4-methylmorpholin-2-yl)isoxazol-3-yl)pyridin-3-yl)-10,10-dimethyl-5,7-dioxo-6^1,6^2,6^3,6^4,6^5,6^6-hexahydro-1^1H-8-oxa-2(4,2)-thiazola-1(5,3)-indola-6(1,3)-pyridazinacycloundecaphane-4-yl)-2,3-dimethylcyclopropane-1-carboxamide], the IC50 in the experiment with SW480 (G12V) was 1.8 nM; in the experiment with AsPC-1 (G12D), 1.1 nM.
Regarding `CCn1c(-c2cc(-c3cc([C@@H]4CCN(C)C4)on3)cnc2[C@H](C)OC)c2c3cc(ccc31)-c1csc(n1)C[C@H](NC(=O)[C@H]1[C@H](C)[C@@H]1C)C(=O)N1CCC[C@H](N1)C(=O)OCC(C)(C)C2` (atropisomer, axis not shown) [Compound 29, (1r,2R,3S)-N-((6^3S,4S,Z)-1^1-ethyl-1^2-(2-((S)-1-methoxyethyl)-5-(5-((R)-1-methylpyrrolidin-3-yl)isoxazol-3-yl)pyridin-3-yl)-10,10-dimethyl-5,7-dioxo-6^1,6^2,6^3,6^4,6^5,6^6-hexahydro-1^1H-8-oxa-2(4,2)-thiazola-1(5,3)-indola-6(1,3)-pyridazinacycloundecaphane-4-yl)-2,3-dimethylcyclopropane-1-carboxamide], the IC50 in the experiment with SW480 (G12V) is 10 nM; in the experiment with AsPC-1 (G12D) it was 3.2 nM.
The corresponding values for `CCn1c(-c2cc(-c3cc(C4CCN(C)CC4)on3)cnc2[C@H](C)OC)c2c3cc(ccc31)-c1csc(n1)C[C@H](NC(=O)[C@H]1C[C@@H]1C)C(=O)N1CCC[C@H](N1)C(=O)OCC(C)(C)C2` (atropisomer, axis not shown) [Compound 30, (1S,2S)-N-((6^3S,4S,Z)-1^1-ethyl-1^2-(2-((S)-1-methoxyethyl)-5-(5-(1-methylpiperidin-4-yl)isoxazol-3-yl)pyridin-3-yl)-10,10-dimethyl-5,7-dioxo-6^1,6^2,6^3,6^4,6^5,6^6-hexahydro-1^1H-8-oxa-2(4,2)-thiazola-1(5,3)-indola-6(1,3)-pyridazinacycloundecaphane-4-yl)-2-methylcyclopropane-1-carboxamide] are 0.44 nM and 0.58 nM.
The corresponding values for `CCn1c(-c2cc(-c3cc(C4CN(C)C4)on3)cnc2[C@H](C)OC)c2c3cc(ccc31)-c1csc(n1)C[C@H](NC(=O)[C@H]1C[C@@H]1C)C(=O)N1CCC[C@H](N1)C(=O)OCC(C)(C)C2` (atropisomer, axis not shown) [Compound 31, (1S,2S)-N-((6^3S,4S,Z)-1^1-ethyl-1^2-(2-((S)-1-methoxyethyl)-5-(5-(1-methylazetidin-3-yl)isoxazol-3-yl)pyridin-3-yl)-10,10-dimethyl-5,7-dioxo-6^1,6^2,6^3,6^4,6^5,6^6-hexahydro-1^1H-8-oxa-2(4,2)-thiazola-1(5,3)-indola-6(1,3)-pyridazinacycloundecaphane-4-yl)-2-methylcyclopropane-1-carboxamide] are 2 nM and 1.6 nM.
For `CCn1c(-c2cc(-c3cc([C@@H]4COCCN4C)on3)cnc2[C@H](C)OC)c2c3cc(ccc31)-c1csc(n1)C[C@H](NC(=O)[C@H]1[C@H](C)[C@@H]1C)C(=O)N1CCC[C@H](N1)C(=O)OCC(C)(C)C2` (atropisomer, axis not shown) [Compound 32, (1r,2R,3S)-N-((6^3S,4S,Z)-1^1-ethyl-1^2-(2-((S)-1-methoxyethyl)-5-(5-((S)-4-methylmorpholin-3-yl)isoxazol-3-yl)pyridin-3-yl)-10,10-dimethyl-5,7-dioxo-6^1,6^2,6^3,6^4,6^5,6^6-hexahydro-1^1H-8-oxa-2(4,2)-thiazola-1(5,3)-indola-6(1,3)-pyridazinacycloundecaphane-4-yl)-2,3-dimethylcyclopropane-1-carboxamide], in that order: 1.6 nM and 1.3 nM.
For the compound `CCn1c(-c2cc(-c3cc([C@H]4COCCN4C)on3)cnc2[C@H](C)OC)c2c3cc(ccc31)-c1csc(n1)C[C@H](NC(=O)[C@H]1[C@H](C)[C@@H]1C)C(=O)N1CCC[C@H](N1)C(=O)OCC(C)(C)C2` (atropisomer, axis not shown) [Compound 33, (1r,2R,3S)-N-((6^3S,4S,Z)-1^1-ethyl-1^2-(2-((S)-1-methoxyethyl)-5-(5-((R)-4-methylmorpholin-3-yl)isoxazol-3-yl)pyridin-3-yl)-10,10-dimethyl-5,7-dioxo-6^1,6^2,6^3,6^4,6^5,6^6-hexahydro-1^1H-8-oxa-2(4,2)-thiazola-1(5,3)-indola-6(1,3)-pyridazinacycloundecaphane-4-yl)-2,3-dimethylcyclopropane-1-carboxamide], the values for the concentration for half-maximal inhibition (IC50) with SW480 (G12V) and with AsPC-1 (G12D) were 2.1 nM and 0.86 nM, respectively.
In the case of `CCn1c(-c2cc(-c3cc(C4(C)CN(C)C4)on3)cnc2[C@H](C)OC)c2c3cc(ccc31)-c1csc(n1)C[C@H](NC(=O)[C@H]1[C@H](C)[C@@H]1C)C(=O)N1CCC[C@H](N1)C(=O)OCC(C)(C)C2` (atropisomer, axis not shown) [Compound 34, (1r,2R,3S)-N-((6^3S,4S,Z)-1^2-(5-(5-(1,3-dimethylazetidin-3-yl)isoxazol-3-yl)-2-((S)-1-methoxyethyl)pyridin-3-yl)-1^1-ethyl-10,10-dimethyl-5,7-dioxo-6^1,6^2,6^3,6^4,6^5,6^6-hexahydro-1^1H-8-oxa-2(4,2)-thiazola-1(5,3)-indola-6(1,3)-pyridazinacycloundecaphane-4-yl)-2,3-dimethylcyclopropane-1-carboxamide], the results for the IC50 in the experiment with SW480 (G12V) and with AsPC-1 (G12D) were 0.17 nM and 0.16 nM, respectively.
For `CCn1c(-c2cc(-c3cnc(CN4CCOCC4)cn3)cnc2[C@H](C)OC)c2c3cc(ccc31)-c1csc(n1)C[C@H](NC(=O)[C@H]1C[C@@H]1C)C(=O)N1CCC[C@H](N1)C(=O)OCC(C)(C)C2` (atropisomer, axis not shown) [Compound 35, (1S,2S)-N-((6^3S,4S,Z)-1^1-ethyl-1^2-(2-((S)-1-methoxyethyl)-5-(5-(morpholinomethyl)pyrazin-2-yl)pyridin-3-yl)-10,10-dimethyl-5,7-dioxo-6^1,6^2,6^3,6^4,6^5,6^6-hexahydro-1^1H-8-oxa-2(4,2)-thiazola-1(5,3)-indola-6(1,3)-pyridazinacycloundecaphane-4-yl)-2-methylcyclopropane-1-carboxamide], in that order: 2 nM and 4 nM.
For `CCn1c(-c2cc(-c3ccn(CCN4CCOCC4)c(=O)c3)cnc2[C@H](C)OC)c2c3cc(ccc31)-c1csc(n1)C[C@H](NC(=O)[C@H]1[C@H](C)[C@@H]1C)C(=O)N1CCC[C@H](N1)C(=O)OCC(C)(C)C2` (atropisomer, axis not shown) [Compound 36, (1r,2R,3S)-N-((6^3S,4S,Z)-1^1-ethyl-1^2-(6-((S)-1-methoxyethyl)-1′-(2-morpholinoethyl)-2′-oxo-1′,2′-dihydro-[3,4′-bipyridin]-5-yl)-10,10-dimethyl-5,7-dioxo-6^1,6^2,6^3,6^4,6^5,6^6-hexahydro-1^1H-8-oxa-2(4,2)-thiazola-1(5,3)-indola-6(1,3)-pyridazinacycloundecaphane-4-yl)-2,3-dimethylcyclopropane-1-carboxamide], in that order: 1 nM and 0.39 nM.
The corresponding values for `CCn1c(-c2cc(-c3cncc(CN4CCS(=O)(=O)CC4)c3)cnc2[C@H](C)OC)c2c3cc(ccc31)-c1csc(n1)C[C@H](NC(=O)[C@H]1[C@H](C)[C@@H]1C)C(=O)N1CCC[C@H](N1)C(=O)OCC(C)(C)C2` (atropisomer, axis not shown) [Compound 37, (1r,2R,3S)-N-((6^3S,4S,Z)-12-(5′-((1,1-dioxidothiomorpholino)methyl)-6-((S)-1-methoxyethyl)-[3,3′-bipyridin]-5-yl)-1^1-ethyl-10,10-dimethyl-5,7-dioxo-6^1,6^2,6^3,6^4,6^5,6^6-hexahydro-1^1H-8-oxa-2(4,2)-thiazola-1(5,3)-indola-6(1,3)-pyridazinacycloundecaphane-4-yl)-2,3-dimethylcyclopropane-1-carboxamide] are 1.8 nM and 0.9 nM.
`CCn1c(-c2cc(-c3cnc(CN4CCS(=O)(=O)CC4)nc3)cnc2[C@H](C)OC)c2c3cc(ccc31)-c1csc(n1)C[C@H](NC(=O)[C@H]1C[C@@H]1C)C(=O)N1CCC[C@H](N1)C(=O)OCC(C)(C)C2` (atropisomer, axis not shown) [Compound 38, (1S,2S)-N-((6^3S,4S,Z)-1^2-(5-(2-((1,1-dioxidothiomorpholino)methyl)pyrimidin-5-yl)-2-((S)-1-methoxyethyl)pyridin-3-yl)-1^1-ethyl-10,10-dimethyl-5,7-dioxo-6^1,6^2,6^3,6^4,6^5,6^6-hexahydro-1^1H-8-oxa-2(4,2)-thiazola-1(5,3)-indola-6(1,3)-pyridazinacycloundecaphane-4-yl)-2-methylcyclopropane-1-carboxamide]: the IC50 in the experiment on SW480 (G12V) is 23 nM; with AsPC-1 (G12D), 66 nM.
`CCn1c(-c2cc(-c3cnc(CN4CCOCC4)nc3)cnc2[C@H](C)OC)c2c3cc(ccc31)-c1csc(n1)C[C@H](NC(=O)[C@H]1[C@H](C)[C@@H]1C)C(=O)N1CCC[C@H](N1)C(=O)OCC(C)(C)C2` (atropisomer, axis not shown) [Compound 39, (1r,2R,3S)-N-((6^3S,4S,Z)-1^1-ethyl-1^2-(2-((S)-1-methoxyethyl)-5-(2-(morpholinomethyl)pyrimidin-5-yl)pyridin-3-yl)-10,10-dimethyl-5,7-dioxo-6^1,6^2,6^3,6^4,6^5,6^6-hexahydro-1H-8-oxa-2(4,2)-thiazola-1(5,3)-indola-6(1,3)-pyridazinacycloundecaphane-4-yl)-2,3-dimethylcyclopropane-1-carboxamide]: the IC50 worked out at 0.48 nM in the experiment on SW480 (G12V) and 0.57 nM with AsPC-1 (G12D).
